Results published in patent US4371536A, “β-Carbolin-3-carboxylic acid derivatives” (A/S Ferrosan, priority 1979, dated 1983).

How the values were obtained:
[1] = test system: benzodiazepin receptors; experiment: Inhibition of 3H-flunitrazepam binding in vivo (mouse forebrain); conditions: mice, s.c.; 3H-flunitrazepam i.v. 15 min later, killed after additional 20 min; 35 min
Procedure: The displacement activity of the compounds of the invention has been determined by determined the IC50 value and ED50 value.
The ED50 value represents the dose (mg/kg) of a test substance which causes the specific binding of flunitrazepam to benzodiazepin receptors in a living brain to be reduced to 50% of the control value. Such an in vivo test is carried out as follows:
Groups of mice are injected with the test substance at different doses and usually subcutaneously. 15 minutes later, ^3 H-flunitrazepam is given intravenously to the mice and after an additional 20 minutes, the mice are killed. Their forebrain membranes are removed and the radioactivity of the forebrain membranes is measured by scintillation counting. The ED50 value is determined from dose-response curves.

[2] = molecular target: benzodiazepine receptors; experiment: Displacement of 3H-flunitrazepam binding in vitro (rat forebrain); conditions: 3H-flunitrazepam 1.0 nM, 0° C.
[3] = test system: mice; experiment: Inhibition of aggression in isolated male mice; type: in vivo; conditions: Mus musculus, sc, 0.5 h, s.c., 1/2 hour, read-out: ED50 inhibition of agression (1/2h)
Procedure: The inhibition of aggression has been determined on male mice (NMR from Mollegaard, Denmark) having a weight of 20-22 g. The mice are isolated for 3 weeks in plastic cages and when two mice subsequently are brought into the same cage, they will spontaneously and almost instantaneously start fighting. […] J. Pharmacol., 1978, 47, 45-49. The compounds of the invention were administered subcutaneously and orally and the antiaggressive effect after 1/2 hour was determined. Based on the data obtained, the ED50 value has been calculated.

[4] = test system: rats; experiment: Inhibition of exploratory motility in rats (sedative effect); type: in vivo; conditions: Rattus norvegicus, sc, 0.5 h, 30 min after s.c. administration, first 10 min in novel cage
Procedure: Inhibition of exploratory motility in rodents is a widely used test for sedative effect. A compound of this invention and two well known tranquilizers have been subjected to such a test.
30 Minutes after subcutaneous administration of physiological saline and test substances, rats were transferred to a novel cage and the motility was measured for the first 10 minutes. The ED50 is the dose inhibiting the motility by 50% as compared to the controls.

[5] = test system: rats; experiment: Motility of rats in familiar cages during rest period (awakening effect); type: in vivo; conditions: for motility versus saline control: 4 hours; for behavior during the experimental (rest) period: ethyl ester 20-100 mg/kg s.c., methylamide 20-100 mg/kg p.o., amphetamine s.c.
Procedure: Normal locomotion, grooming and eating occur during the dark period and rest during the light period. If CNS stimulants are given to rats which have stayed in their cages for several hours, a pronounced hypermotility is observed during the light period (Buus Lassen, Psychopharmacologia 1973, 29, 55-64; Kallman and Isaac, Psychopharmacologia 1975, 40, 313-318).
Psysiological saline and test substances were administered s.c. or p.o. to rats kept in familiar cages. The motility was measured for 4 hours (2 periods of 2 hours) after administrations. The motility of groups receiving test substances was compared (Student's t-test) with the motility of the saline-treated control group.

[6] = Acute toxicity in mice (deaths within 24 hours); conditions: mouse, in vivo
Procedure: The acute toxicity in mice was determined by recording the number of deaths within 24 hours.

[7] = Inhibition of motor coordination (ataxia) in mice; conditions: mouse, in vivo, sc, 30 minutes after s.c. administration, read-out: ED50 Ataxia (Motor incoordination)
Procedure: The inhibition of motor coordination in mice was also studied 30 minutes after subcutaneous administration in accordance with a method described in the literature (Buus Lassen et al, Acta pharmacol. et toxicol., 1971, 39, 1-16).

Compound	ED50 in vivo, inhibition of 3H-flunitrazepam binding [1] [mg/kg s.c.]	IC50 in vitro, inhibition of 3H-flunitrazepam binding [2] [µg/mL]	ED50 [3] [mg/kg]	also measured
NC(=O)CNC(=O)c1cc2c(cn1)[nH]c1ccccc12 [NH(CH2 CONH2)]	> 250	0.92	–	–
CC(C)NC(=O)c1cc2c(cn1)[nH]c1ccccc12 [NH(iso-C3 H7)]	23	0.15	75	–
CCOC(=O)c1cc2c(cn1)[nH]c1ccccc12 [OC2 H5, β-carbolin-3-carboxylic acid ethyl ester]	60	0.0014	4	ED50 [4]: > 100 mg/kg; motility versus saline control ([5]; 20-100 mg/kg s.c., Student's t-test): increased the motility significantly (P<0.001); behavior during the experimental (rest) period [5]: appeared more alert than the controls during the experimental period and showed more spells of locomotion, eating and grooming; LD50 at 24 h [6]: > 500 mg/kg; TD50 at 0.5 h [7]: > 100 mg/kg
CCNC(=O)c1cc2c(cn1)[nH]c1ccccc12 [NH(C2 H5), β-carbolin-3-carboxylic acid N-ethylamide]	42	0.11	18	LD50 at 24 h [6]: > 250 mg/kg; TD50 at 0.5 h [7]: > 100 mg/kg
CCNC(=O)c1cc2c3ccccc3n(C(=O)OCC)c2cn1 [NH(C2 H5), COOC2 H5, 9-carbethoxy β-carbolin-3-carboxylic acid, ethylamide]	> 100	0.16	–	–
CNC(=O)c1cc2c(cn1)[nH]c1ccccc12 [NH(CH3), β-carbolin-3-carboxylic acid methylamide]	25	0.1	–	motility versus saline control ([5]; 20-100 mg/kg p.o., Student's t-test): increased the motility significantly (P<0.001); behavior during the experimental (rest) period [5]: appeared more alert than the controls during the experimental period and showed more spells of locomotion, eating and grooming
O=C(NC1CC1)c1cc2c(cn1)[nH]c1ccccc12 [NH(C3 H5), N'-cyclopropyl-β-carbolin-3-carboxamide]	38	0.044	–	–
CN1CCN(C(=O)c2cc3c(cn2)[nH]c2ccccc23)CC1	> 250	> 4	–	–
CN1C(=O)CN=C(c2ccccc2)c2cc(Cl)ccc21 [Diazepam, reference compound]	–	–	3	ED50 [4]: 0.4 mg/kg; motility versus saline control ([5]; 10-20 mg/kg s.c.): did not influence motility
O=C(c1cc2c(cn1)[nH]c1ccccc12)N1CCCCC1	> 250	0.36	–	–
CNC1=Nc2ccc(Cl)cc2C(c2ccccc2)=[N+]([O-])C1 [Chlordiazepoxide, reference compound]	–	–	45	ED50 [4]: 1.2 mg/kg; LD50 at 24 h [6]: 700 mg/kg; TD50 at 0.5 h [7]: 50 mg/kg
CCCCCOC(=O)c1cc2c(cn1)[nH]c1ccccc12 [OC5 H11, n-pentyl β-carbolin-3-carboxylate]	> 250	0.012	50	–
CCN(CC)C(=O)c1cc2c(cn1)[nH]c1ccccc12 [N C2 H5 (C2 H5), β-carbolin-3-carboxylic acid diethylamide]	82	4.3	35	–
O=C(NCc1ccccc1)c1cc2c(cn1)[nH]c1ccccc12 [NH(CH2 C6 H5)]	> 250	0.017	–	–
O=C(c1cc2c(cn1)[nH]c1ccccc12)N1CCCC1	> 250	3.3	–	–
CC(N)Cc1ccccc1 (centres unmarked) [Amphetamine, reference compound]	–	–	–	motility versus saline control ([5]; 0.5-5 mg/ig s.c.): produced a significant hypermotility; behavior during the experimental (rest) period [5]: continuous, stereotyped sniffing, rearing and licking on the cage walls; behavior during the experimental (rest) period ([5]; listed as amphetamine): induced an abnormal behavior which never occurs in saline-treated control rats
CN(C(=O)c1cc2c(cn1)[nH]c1ccccc12)c1ccccc1 [N CH3 (C6 H5), N-methyl-N-phenyl-β-carbolin-3-carboxamide]	> 250	> 4	–	–
CCOC(=O)CNC(=O)c1cc2c(cn1)[nH]c1ccccc12 [NH(CH2 COOC2 H5)]	> 250	0.16	–	–
O=C(NCCO)c1cc2c(cn1)[nH]c1ccccc12 [NH(CH2 CH2 OH)]	56	0.2	–	–
